Experimental data reported in patent publication US20250314644A1, “METHODS COMPRISING DETECTION OF ADP-HEPTOSE” (CHILDREN'S HOSPITAL MEDICAL CENTER, priority 2023, published 2025).

System: Dnmt3a^WT cells
Test: RNA-sequencing of HSPCs treated in vitro with ADP-heptose or H2O for 90 minutes
Type: cell-based, mouse
Settings: Dnmt3a^WT cells, vs H2O

## Nc1ncnc2c1ncn2[C@@H]1O[C@H](COP(=O)(O)OP(=O)(O)O[C@@H]2O[C@H]([C@H](O)CO)[C@@H](O)[C@H](O)[C@@H]2O)[C@@H](O)[C@H]1O [ADP-heptose, ADP-D-glycero-β-D-manno-heptose]
  logFC 2900005J15Rik: 0.6052
  logFC AI607873: 0.6683
  logFC Abca1: −0.707
  logFC Acsbg1: 0.5944
  logFC Adgrg6: −0.645
  logFC Akap12: −1.955
  logFC Akr1c18: 0.7051
  logFC Alpk2: 1.196
  logFC Aoc1: 2.048
  logFC Arg1: 0.7872
  logFC Arl5c: −0.704
  logFC Arntl: −0.87
  logFC Asb2: 1.407
  logFC Atoh8: 0.7783
  logFC Azin2: 0.6183
  logFC B3galt5: 0.9015
  logFC Bach2: −0.675
  logFC Bcl2a1b: 0.925
  logFC Bcl2a1d: 0.6551
  logFC Bhlha15: −0.596
  logFC Blk: −1.578
  logFC Blnk: −1.446
  logFC Cacna1f: 0.7515
  logFC Ccdc63: −0.697
  logFC Ccdc85c: 0.7217
  logFC Ccl5: 1.104
  logFC Ccl17: 2.045
  logFC Ccl22: 0.7001
  logFC Ccl24: 1.365
  logFC Cd19: −1.847
  logFC Cd40: 0.6226
  logFC Cd74: 0.82
  logFC Cd79a: −1.818
  logFC Cd83: 1.204
  logFC Cecr2: −1.929
  logFC Chst3: −1.597
  logFC Cmpk2: 0.7001
  logFC Cplx2: −1.36
  logFC Cx3cl1: 0.9782
  logFC Cxc12: −1.129
  logFC Cxcl3: −0.91
  logFC Cyp4f17: 0.6547
  logFC Dact3: 0.6573
  logFC Dcstamp: 0.6406
  logFC Ddx60: 0.7796
  logFC Dhx58: 0.8261
  logFC Dntt: −2.827
  logFC Dock9: −0.589
  logFC Dsp: −0.701
  logFC Ebf1: −2.106
  logFC Ednrb: −0.653
  logFC Efnb2: 0.9402
  logFC Egr3: 0.785
  logFC Eno2: 0.6638
  logFC Epsti1: 0.6192
  logFC Fam129c: −0.677
  logFC Fam132b: −0.657
  logFC Fktn: −0.609
  logFC Gimap8: 0.7417
  logFC Gm13152: −0.827
  logFC Gpr27: 0.7663
  logFC Grap: 0.7694
  logFC Grasp: 0.5879
  logFC Grin2c: 0.9953
  logFC Grtp1: −0.628
  logFC Gstt1: 1.055
  logFC Gzmc: 2.215
  logFC H2-Aa: 0.9618
  logFC H2-Ab1: 0.9351
  logFC H2-DMb2: 0.7028
  logFC H2-Eb1: 1.049
  logFC Hgfac: 0.647
  logFC Hist1h2bj: 1.326
  logFC Hist1h3c: 0.7275
  logFC Hist1h3e: 1.345
  logFC Hist1h4d: 0.8341
  logFC Hivep2: 0.787
  logFC Hivep3: −0.682
  logFC Hmga1: 0.812
  logFC Hsh2d: 0.6798
  logFC Htr7: 0.9558
  logFC I113: 1.008
  logFC Ifi27l2a: 0.8565
  logFC Ifi44: 0.8977
  logFC Ifi204: 0.7452
  logFC Ifit1: 1.338
  logFC Ifit3: 1.739
  logFC Ifit3b: 1.88
  logFC Igll1: −2.359
  logFC Il1a: −1.749
  logFC Il1b: −1.155
  logFC Il6: 0.8099
  logFC Irf7: 1.151
  logFC Irg1: −0.846
